Data reported in publication PMC12649549, “Sequence Permutation Generated Lysine and Tryptophan-Rich Antimicrobial Peptides with Enhanced Therapeutic Index” (Antibiotics, 2025).
Like-named read-outs stand apart in the source and are kept apart here.

Experiments:
[1] = test system: A. baumannii 14B00100 (Acinetobacter sp., BCRC number 14B0100)
Outline: (§1)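 Broth microdilution per CLSI in Müller-Hinton broth and modified LYM broth (pH 7.4; variants with 50–300 mM NaCl, 0.5–2.5 mM MgCl2, or pH 6.5–4.5). Inoculum 5 × 10^5 CFU/mL; peptides tested at 0.78–50 µg/mL final. MIC read; three independent repeats.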

[2] = test system: A. baumannii 14B0091 (Acinetobacter sp., BCRC number 14B0091)
Outline: as §1

[3] = test system: A. baumannii 14B0097 (Acinetobacter sp., BCRC number 14B0097)
Outline: as §1

[4] = test system: Pseudomonas aeruginosa Migula (ATCC 27853)
Outline: as §1

S. aureus ATCC 25923 = test system: S. aureus ATCC 25923
Outline: as §1

S. aureus ATCC 33591 = test system: S. aureus ATCC 33591
Outline: as §1

S. aureus ATCC 6538 = test system: S. aureus ATCC 6538
Outline: as §1

[5] = LYM broth, 0 mM NaCl, 16 h, 37 °C
[6] = LYM broth, 50 mM NaCl, 16 h, 37 °C
[7] = LYM broth, 100 mM NaCl, 16 h, 37 °C
[8] = LYM broth, 200 mM (NaCl), 16 h, 37 °C
[9] = LYM broth, 300 mM (NaCl), 16 h, 37 °C
[10] = MH broth, 5 × 10^5 CFU/mL, 16 h, 37 °C, repeated three times

Measured: MIC

Ac-KKWRKWLKWLAKK-NH2 [W5K/A9W]
1.56 µg/mL: [1]; [5] | [1]; LYM broth, 0.5 mM MgCl2 | [1]; LYM broth, 1.5 mM MgCl2 | [1]; LYM broth, 2.5 mM MgCl2 | [1]; [6] | [1]; [7] | [1]; [8] | [1]; [9] | [1]; LYM broth, pH 4.5 | [1]; LYM broth, pH 5.5 | [1]; LYM broth, pH 6.5 | [1]; [10] | [2]; [5] | [2]; LYM broth, 0.5 mM MgCl2 | [2]; LYM broth, 1.5 mM MgCl2 | [2]; LYM broth, 2.5 mM MgCl2 | [2]; [6] | [2]; [7] | [2]; [8] | [2]; [9] | [2]; LYM broth, pH 4.5 | [2]; LYM broth, pH 5.5 | [2]; LYM broth, pH 6.5 | [2]; [10] | [3]; [5] | [3]; LYM broth, 0.5 mM MgCl2 | [3]; LYM broth, 1.5 mM MgCl2 | [3]; LYM broth, 2.5 mM MgCl2 | [3]; [6] | [3]; [7] | [3]; [8] | [3]; [9] | [3]; LYM broth, pH 4.5 | [3]; LYM broth, pH 5.5 | [3]; LYM broth, pH 6.5 | [3]; [10] | [4]; [5] | [4]; LYM broth, 0.5 mM MgCl2 | [4]; [6] | [4]; [7] | [4]; LYM broth, pH 4.5 | [4]; LYM broth, pH 5.5 | [4]; LYM broth, pH 6.5 | S. aureus ATCC 25923; [5] | S. aureus ATCC 25923; LYM broth, 0.5 mM MgCl2 | S. aureus ATCC 25923; [6] | S. aureus ATCC 25923; LYM broth, pH 5.5 | S. aureus ATCC 25923; LYM broth, pH 6.5 | S. aureus ATCC 6538; [5] | S. aureus ATCC 6538; LYM broth, 0.5 mM MgCl2 | S. aureus ATCC 6538; LYM broth, 1.5 mM MgCl2 | S. aureus ATCC 6538; LYM broth, 2.5 mM MgCl2 | S. aureus ATCC 6538; [6] | S. aureus ATCC 6538; [7] | S. aureus ATCC 6538; LYM broth, pH 5.5 | S. aureus ATCC 6538; LYM broth, pH 6.5
3.13 µg/mL: [4]; LYM broth, 1.5 mM MgCl2 | [4]; LYM broth, 2.5 mM MgCl2 | [4]; [8] | [4]; [10] | S. aureus ATCC 25923; LYM broth, 1.5 mM MgCl2 | S. aureus ATCC 25923; LYM broth, 2.5 mM MgCl2 | S. aureus ATCC 25923; [7] | S. aureus ATCC 25923; [8] | S. aureus ATCC 25923; LYM broth, pH 4.5 | S. aureus ATCC 25923; [10] | S. aureus ATCC 33591; [5] | S. aureus ATCC 33591; LYM broth, 0.5 mM MgCl2 | S. aureus ATCC 33591; LYM broth, 1.5 mM MgCl2 | S. aureus ATCC 33591; LYM broth, 2.5 mM MgCl2 | S. aureus ATCC 33591; [6] | S. aureus ATCC 33591; LYM broth, pH 4.5 | S. aureus ATCC 33591; LYM broth, pH 5.5 | S. aureus ATCC 33591; LYM broth, pH 6.5 | S. aureus ATCC 6538; [8] | S. aureus ATCC 6538; LYM broth, pH 4.5
12.5 µg/mL: S. aureus ATCC 33591; [9] | S. aureus ATCC 33591; [10]
6.25 µg/mL: [4]; [9] | S. aureus ATCC 25923; [9] | S. aureus ATCC 33591; [7] | S. aureus ATCC 33591; [8] | S. aureus ATCC 6538; [9] | S. aureus ATCC 6538; [10]
